According to the NIST ThermoML archive (doi:10.1016/j.tca.2016.01.006):
Numbers after ± are expanded uncertainties.

Tests used:
[1] = DTA
[2] = Molar enthalpy of transition or fusion; settings: DSC

Normal melting temperature ([1]; Crystal 1): 190.00 ± 2 °C
Normal melting temperature ([1]; Metastable crystal): 185.00 ± 2 °C
Molar enthalpy of transition or fusion ([2]; Crystal 1): 5.45 ± 0.17 kcal/mol
Molar enthalpy of transition or fusion ([2]; Metastable crystal): 7.24 ± 0.17 kcal/mol
SMILES: CC1=C(CC(=O)O)c2cc(F)ccc2/C1=C\c1ccc([S+](C)[O-])cc1 (centres undefined)
